Results taken from BindingDB's records for doi:10.1021/jm100478y (University of North Carolina at Chapel Hill, 2010).

Target: T1, Histone-lysine N-methyltransferase EHMT2 (Homo sapiens, UniProt Q96KQ7)
T1 sequence (Q96KQ7 whole entry): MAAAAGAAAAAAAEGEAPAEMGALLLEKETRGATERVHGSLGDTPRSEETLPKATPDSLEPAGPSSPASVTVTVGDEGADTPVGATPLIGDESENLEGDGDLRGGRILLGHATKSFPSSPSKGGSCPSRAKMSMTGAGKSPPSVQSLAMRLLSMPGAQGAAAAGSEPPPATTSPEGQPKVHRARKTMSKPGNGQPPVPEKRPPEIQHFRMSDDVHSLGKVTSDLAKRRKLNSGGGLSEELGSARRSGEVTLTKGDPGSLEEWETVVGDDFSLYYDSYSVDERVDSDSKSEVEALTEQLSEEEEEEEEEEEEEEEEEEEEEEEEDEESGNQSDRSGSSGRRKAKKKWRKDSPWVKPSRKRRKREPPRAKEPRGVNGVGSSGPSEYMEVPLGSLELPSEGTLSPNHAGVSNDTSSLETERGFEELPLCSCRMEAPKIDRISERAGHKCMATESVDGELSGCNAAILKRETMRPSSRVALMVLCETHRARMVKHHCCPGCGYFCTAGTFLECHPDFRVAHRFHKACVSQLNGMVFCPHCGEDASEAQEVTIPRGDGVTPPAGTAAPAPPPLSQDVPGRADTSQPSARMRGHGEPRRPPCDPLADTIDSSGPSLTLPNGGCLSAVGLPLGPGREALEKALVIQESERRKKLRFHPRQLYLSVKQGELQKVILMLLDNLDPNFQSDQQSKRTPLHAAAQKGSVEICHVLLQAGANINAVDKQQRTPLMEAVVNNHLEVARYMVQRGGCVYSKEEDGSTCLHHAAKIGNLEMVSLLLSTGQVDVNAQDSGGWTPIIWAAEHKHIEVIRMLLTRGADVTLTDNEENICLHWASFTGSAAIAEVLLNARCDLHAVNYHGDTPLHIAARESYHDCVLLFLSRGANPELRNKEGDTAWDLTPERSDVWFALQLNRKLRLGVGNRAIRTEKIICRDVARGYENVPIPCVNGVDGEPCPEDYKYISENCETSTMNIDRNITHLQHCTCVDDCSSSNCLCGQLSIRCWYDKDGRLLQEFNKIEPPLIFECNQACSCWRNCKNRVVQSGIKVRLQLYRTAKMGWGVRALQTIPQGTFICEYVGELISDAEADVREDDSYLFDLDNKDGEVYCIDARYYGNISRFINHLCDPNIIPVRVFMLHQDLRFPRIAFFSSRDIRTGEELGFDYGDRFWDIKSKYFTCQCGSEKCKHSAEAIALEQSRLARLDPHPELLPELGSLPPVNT
Assay: Inhibition of methyl transferase activity of G9a assessed as inhibition of H3K9 methylation by chemiluminescence based oxygen tunneling assay

SMILES | IC50 [µM]
COc1cc2nc(N3CCCN(C)CC3)nc(NC3CCNCC3)c2cc1OC [6,7-Dimethoxy-2-(4-methyl-1,4-diazepan-1-yl)-N-(piperidin-4-yl)quinazolin-4-amine] | > 10
COc1cc2nc(N3CCCN(C)CC3)nc(NC3CCOCC3)c2cc1OC [6,7-dimethoxy-2-(4-methyl-1,4-diazepan-1-yl)-N-(tetrahydro-2H-pyran-4-yl)quinazolin-4-amine] | > 10
